Converted amounts (≈) assume the structure as drawn.
Assays:
Assay type in all cases: cell-based
[1] = system: Staphylococcus aureus CMX 642A; assay: In vitro agar dilution MIC, organism code DD; conditions: Table 1B, unit assumed
In short: (§1)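 Growth on twelve drug-containing BHI agar plates was compared with drug-free controls after incubation at 35-37° C for 20 to 24 hours. Inocula were 1:100 dilutions, or 1:10 for slow-growing strains. The MIC allowed slight haze or sparsely isolated colonies.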

[2] = system: Streptococcus pyogenes PIU 2548; assay: In vitro agar dilution MIC, organism code NN; conditions: Table 1B, unit assumed
In short: as §1

[3] = system: Streptococcus bovis A-5169; assay: In vitro agar dilution MIC, organism code JJ; conditions: Table 1B, unit assumed
In short: as §1

[4] = system: Streptococcus pneumoniae 5649; assay: In vitro agar dilution MIC, organism code ZZA; conditions: Table 1B, unit assumed
In short: as §1

[5] = system: Escherichia coli JUHL; assay: In vitro agar dilution MIC, organism code QQ; conditions: Table 1B, in µg/mL (unit assumed)
In short: as §1

[6] = system: Staphylococcus aureus NCTC10649M; assay: In vitro agar dilution MIC, organism code EE; conditions: Table 1B, unit assumed
In short: as §1

[7] = system: Escherichia coli DC-2; assay: In vitro agar dilution MIC, organism code SS; conditions: Table 1B, unit assumed
In short: as §1

[8] = system: Staphylococcus aureus A5177; assay: In vitro agar dilution MIC, organism code BB; conditions: Table 1B, in µg/mL (unit assumed)
In short: as §1

[9] = system: Candida albicans CCH 442; assay: In vitro agar dilution MIC, organism code TT; conditions: Table 1B, unit assumed
In short: as §1

[10] = system: Streptococcus pneumoniae 5979; assay: In vitro agar dilution MIC, organism code ZZ; conditions: Table 1B, unit assumed
In short: as §1

[11] = system: Streptococcus pneumoniae GYR 1171; assay: In vitro agar dilution MIC, organism code YY; conditions: Table 1B, unit assumed
In short: as §1

[12] = system: Streptococcus pyogenes 930; assay: In vitro agar dilution MIC, organism code MM; conditions: Table 1B, unit assumed
In short: as §1

[13] = system: Streptococcus pneumoniae ATCC 6303; assay: In vitro agar dilution MIC, organism code XX; conditions: Table 1B, unit assumed
In short: as §1

[14] = system: Mycobacterium smegmatis ATCC 114; assay: In vitro agar dilution MIC, organism code UU; conditions: Table 1B, in µg/mL (unit assumed)
In short: as §1

[15] = system: Enterococcus faecium ATCC 8043; assay: In vitro agar dilution MIC, organism code II; conditions: Table 1B, unit assumed
In short: as §1

[16] = system: Nocardia asteroides ATCC 9970; assay: In vitro agar dilution MIC, organism code VV; conditions: Table 1B, in µg/mL (unit assumed)
In short: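 Agar plates of BHI carried graded compound concentrations and were inoculated with bacterial suspensions diluted 1:100, or 1:10 for slow-growing streptococci. After 20 to 24 hours of incubation at 35-37° C, the minimum inhibitory concentration was scored visually against a compound-free plate.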

[17] = system: Staphylococcus aureus ATCC 6538P; assay: In vitro agar dilution MIC, organism code AA; conditions: Table 1B, unit assumed
In short: as §1

[18] = system: Micrococcus luteus ATCC 4698; assay: In vitro agar dilution MIC, organism code PP; conditions: Table 1B, in µg/mL (unit assumed)
In short: as §1

[19] = system: Staphylococcus aureus 1775; assay: In vitro agar dilution MIC, organism code GG; conditions: Table 1B, unit assumed
In short: as §1

[20] = system: Staphylococcus aureus A-5278; assay: In vitro agar dilution MIC, organism code CC; conditions: Table 1B, unit assumed
In short: as §1

[21] = system: Staphylococcus aureus CMX 553; assay: In vitro agar dilution MIC, organism code FF; conditions: Table 1B, unit assumed
In short: as §1

[22] = system: Haemophilis influenzae DILL AMP R; assay: In vitro agar dilution MIC, organism code WW; conditions: Table 1B, unit assumed
In short: as §1

[23] = system: Streptococcus pyogenes EES61; assay: In vitro agar dilution MIC, organism code LL; conditions: Table 1B, unit assumed
In short: as §1

[24] = system: Staphylococcus epidermidis 3519; assay: In vitro agar dilution MIC, organism code HH; conditions: Table 1B, in µg/mL (unit assumed)
In short: as §1

[25] = system: Streptococcus agalactiae CMX 508; assay: In vitro agar dilution MIC, organism code KK; conditions: Table 1B, unit assumed
In short: as §1

[26] = system: Escherichia coli SS; assay: In vitro agar dilution MIC, organism code RR; conditions: Table 1B, in µg/mL (unit assumed)
In short: as §1

[27] = system: Micrococcus luteus ATCC 9341; assay: In vitro agar dilution MIC, organism code OO; conditions: Table 1B, unit assumed
In short: as §1

Compound	MIC [1] [µg/mL]	MIC [2] [µg/mL]	MIC [3] [µg/mL]	MIC [4] [µg/mL]	MIC [5]	MIC [6] [µg/mL]	MIC [7] [µg/mL]	MIC [8]	MIC [9] [µg/mL]	MIC [10] [µg/mL]	MIC [11] [µg/mL]	MIC [12] [µg/mL]	MIC [13] [µg/mL]	MIC [14]	MIC [15] [µg/mL]	MIC [16]	MIC [17] [µg/mL]	MIC [18]	MIC [19] [µg/mL]	MIC [20] [µg/mL]	also measured
CC[C@H]1OC(=O)C(C)(F)C(=O)[C@H](C)[C@@H](O[C@@H]2O[C@H](C)C[C@H](N(C)C)[C@H]2O)[C@](C)(OCC#Cc2cnc3ccccc3c2)C[C@@H](C)C(=O)[C@H](C)[C@H]2NC(=O)O[C@@]21C (stereo partly drawn) [Example 26]	0.05 (≈ 0.0639 µM)	0.05 (≈ 0.0639 µM)	0.01 (≈ 0.0128 µM)	0.25 (≈ 0.32 µM)	25	0.1 (≈ 0.128 µM)	25 (≈ 32 µM)	0.05	> 100	16 (≈ 20.5 µM)	≤ 0.004	0.1 (≈ 0.128 µM)	≤ 0.004	0.2	0.02 (≈ 0.0256 µM)	0.01	0.05 (≈ 0.0639 µM)	0.05	> 100	> 100	MIC [21]: 0.05 µg/mL (≈ 0.0639 µM); MIC [22]: 2 µg/mL (≈ 2.56 µM); MIC [23]: 0.02 µg/mL (≈ 0.0256 µM); MIC [24]: 0.05; MIC [25]: 0.02 µg/mL (≈ 0.0256 µM); MIC [26]: 0.2; MIC [27]: 0.02 µg/mL (≈ 0.0256 µM)
CC[C@H]1OC(=O)C(C)(F)C(=O)[C@H](C)[C@@H](O[C@@H]2O[C@H](C)C[C@H](N(C)C)[C@H]2O)[C@](C)(OCC#Cc2ccc(-c3cccs3)s2)C[C@@H](C)C(=O)[C@H](C)[C@H]2NC(=O)O[C@@]21C (stereo partly drawn) [Example 28]	0.1 (≈ 0.122 µM)	0.2 (≈ 0.244 µM)	0.01 (≈ 0.0122 µM)	0.25 (≈ 0.305 µM)	100	0.2 (≈ 0.244 µM)	100 (≈ 122 µM)	0.1	> 100	16 (≈ 19.5 µM)	≤ 0.004	0.78 (≈ 0.952 µM)	≤ 0.004	0.39	0.05 (≈ 0.061 µM)	0.02	0.05 (≈ 0.061 µM)	0.05	> 100	> 100	MIC [21]: 0.1 µg/mL (≈ 0.122 µM); MIC [22]: 2 µg/mL (≈ 2.44 µM); MIC [23]: 0.02 µg/mL (≈ 0.0244 µM); MIC [24]: 0.1; MIC [25]: 0.02 µg/mL (≈ 0.0244 µM); MIC [26]: 0.78; MIC [27]: 0.02 µg/mL (≈ 0.0244 µM)

Reference: US6124269A, “2-Halo-6-O-substituted ketolide derivatives” (priority 1998, dated 2000)
